Measurements published in patent publication US12325692B2, “Uses of doxadiazines compounds” (HORITZONTS TECNOLOGICS HUNGARY KORLÁTOLT FELELOSSÉGU …, priority 2019, dated 2025).

How the values were obtained:
NIH/3T3 cells = experiment: Cellular antioxidant activity assay (TBHP-induced ROS, DCFH-DA) in NIH/3T3 cells; type: cell-based; conditions: Mus musculus, NIH3T3, NIH/3T3 cell, read-out: antioxidant activity IC50 (TBHP-induced intracellular ROS)
Procedure: (§1) FIG. 3. Inhibition of TBHP-induced ROS production in THP-1 and NIH-3T3 cells. ROS production was evaluated by fluorescent probe DCFH-DA assay.
(§2) Cellular antioxidant activity assays. The intracellular accumulation of ROS is detected by fluorimetry using […] (DCFH-DA). The THP-1 cell (1×10^5 cells/well) are cultured in a 96-well black plate in DMEM supplemented with 10% FBS; culture medium is renewed when the cells reached 80% confluence. For inhibition, the cells are pre-incubated with the test substances for 30 min and treated with 0.4 mM Terc-butyl-hydroperoxide (TBHP). After 3 h the cells are incubated with 10 μM DCFH-DA in the culture medium at 37° C. for 30 min.
(§3) The acetate groups on DCFH-DA are removed by an intracellular esterase, trapping the probe inside the THP-1 cell. Then, the cells are washed with PBS at 37° C. and the production of ROS measured by changes in fluorescence due to the intracellular accumulation of DCF caused by the oxidation of DCFH. Intracellular ROS, as indicated by DCF fluorescence is detected using the Incucyte FLR software; the data are analyzed by the total green object integrated intensity (GCU×μm^2×well) of the imaging system IncuCyte HD (Essen BioScience).
(§4) In both cases the intracellular levels of ROS induced by TBHP are reduced (FIG. 3).

HIF-1α = HIF-1α activity assay (NIH/3T3-EPO-Luc luciferase reporter, DFX-induced); type: cell-based; conditions: 6 h, read-out: inhibition of DFX-induced activation of EPO-Luc (HIF-1α stabilization) IC50
Procedure: FIG. 7. Inhibitions the HIF-1α pathway. NIH/3T3-EPO-Luc cells (10×10^4 cells/mL) were preincubated with increasing concentrations of the compound or the hypoximimetic (Desferrioxamine) DFX for 6 h. Luciferase activity was measured in the cell lysates and results are represented as the percentage of inhibition considering 100% the value of DFX-induced HIF-1α pathway activation.
HIF-1α activity assay. The NIH/3T3-EPO-luc cells have been stably transfected with the plasmid Epo-Luc plasmid. The EPO-Hypoxia Response Element (HRE)-luciferase reporter plasmid contains three copies of the HRE consensus sequence from the promoter of the erythropoietin gene in the pGL3 vector. Cells (1×10^4 for NIH/3T3-EPO-luc) are seeded the day before the assay. The next day, the cells are stimulated either with the compound or Desferrioxamine (DFX) 150 μM as a positive control. After 6 hours of stimulation the cells are lysed in 25 mM Tris-phosphate pH 7.8, 8 mM MgCl2, 1 mM DTT, 1% Triton X-100, and 7% glycerol during 15 min at RT in a horizontal shaker. Luciferase activity is measured using a GloMax 96 microplate luminometer (Promega) following the instructions of the luciferase assay kit (Promega, Madison, WI, USA). The RLU is calculated and the results are expressed as percentage of inhibition induction/inhibition of EPO-luc activity. […]

tyrosinase = biological target: T1, tyrosinase (Mus musculus, UniProt P11344); experiment: Tyrosinase activity assay in B16-F10 melanoma cells; type: cell-based; conditions: 72 h treatment, read-out: inhibition of melanin synthesis (tyrosinase activity assay) IC50
T1 construct: To measure the tyrosinase activity of the cells, the B16-F10 cells treated for 3 days; endogenous in cells; host or cells: B16-F10 melanoma cells
T1 sequence (P11344 19-533): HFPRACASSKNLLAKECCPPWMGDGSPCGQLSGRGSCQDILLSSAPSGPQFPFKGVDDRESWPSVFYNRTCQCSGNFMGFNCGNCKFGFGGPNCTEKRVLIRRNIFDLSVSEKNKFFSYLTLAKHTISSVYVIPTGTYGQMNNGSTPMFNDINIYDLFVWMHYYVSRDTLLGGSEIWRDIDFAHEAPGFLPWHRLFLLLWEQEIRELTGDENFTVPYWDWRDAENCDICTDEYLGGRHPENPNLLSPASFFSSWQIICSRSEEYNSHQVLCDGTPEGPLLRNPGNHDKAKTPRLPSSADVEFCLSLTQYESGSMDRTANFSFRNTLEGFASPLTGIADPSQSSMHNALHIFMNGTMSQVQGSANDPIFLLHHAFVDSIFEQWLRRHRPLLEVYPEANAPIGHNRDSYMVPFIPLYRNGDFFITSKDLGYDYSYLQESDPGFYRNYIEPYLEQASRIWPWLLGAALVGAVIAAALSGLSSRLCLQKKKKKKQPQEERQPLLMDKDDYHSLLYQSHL
Procedure: FIG. 8. Effect of DOXA-1 and DOXA-2 on tyrosinase activity in B16-F10 melanoma cells. Tyrosinase activity assessment was performed as described in Methods. Briefly, cells were treated with the doses indicated of test substances or Kojic Acid as a positive control for 72 h. To determine the tyrosinase activity cells were lysed and the protein extracts were incubated with L-DOPA (a precursor of melanin) at 37° C. during 2 h and the activity was measured at 485 nm. Results are represented as percentage relative to untreated cells (control).
Tyrosinase activity assay. To measure the tyrosinase activity of the cells, the B16-F10 cells treated for 3 days with several doses of the compound is lysed by incubation at 4° C. for 30 min in lysis buffer (20 mM sodium phosphate, pH 6.8, 1% Triton X-100, 1 mM PMSF, 1 mM EDTA) containing protease inhibitors cocktail. The lysates are centrifuged at 15,000× g for 10 min to obtain the supernatant as the source of tyrosinase. The reaction mixture contained 20 mM phosphate buffer, pH 6.8, 1.25 mM L-DOPA (Sigma-Aldrich). After incubation at 37° C. for 2 h, dopachrome formation is monitored by measuring absorbance at a wavelength of 475 nm in a microplatereader (TECAN). Kojic acid 2 mM is used as a positive control.

NF-ηB [1] = experiment: NF-ηB activity assay in THP-1 cells; type: cell-based; conditions: Homo sapiens; THP-1 cell; read-out: inhibition of NF-ηB production IC50
Procedure: (§5) FIG. 5. Inhibition of NF-ηB production in THP-1 and NIH/3T3 cells.
(§6) NF-ηB activity assays. The NIH/3T3-KBF-Luc cells has been stably transfected with the plasmid KBF-Luc plasmid, which contains three copies of NF-ηB binding site (from major histocompatibility complex promoter), fused to a minimal simian virus 40 promoter driving the luciferase gene. Cells (1×10^4 for NIH/3T3-KBF-Luc) are seeded the day before the assay on 96-well plate. Then the cells are treated with the test substances for 15 min and then stimulated with 30 ng/mL TNF-α. After 6 h, the cells are washed twice with PBS and lysed in 50 μL lysis buffer containing 25 mM Tris-phosphate (pH 7.8), 8 mM MgCl2, 1 mM DTT, 1% Triton X-100, and 7% glycerol during 15 min at RT in a horizontal shaker. Luciferase activity is measured using a GloMax 96 microplate luminometer (Promega) following the instructions of the luciferase assay kit (Promega, Madison, WI, USA). The RLU is calculated and the results are expressed as percentage of inhibition of NF-ηB activity induced by TNF-α (100% activation). The experiments for each concentration of the test items will be done in triplicate wells.

THP-1 cells [2] = experiment: Cellular antioxidant activity assay (TBHP-induced ROS, DCFH-DA) in THP-1 cells; type: cell-based; conditions: Homo sapiens, THP-1 cell, 0.4 mM TBHP, read-out: antioxidant activity IC50 (TBHP-induced intracellular ROS)
Procedure: as §1, §2, §3, §4

NF-ηB [3] = experiment: NF-ηB activity assay (KBF-Luc luciferase reporter) in NIH/3T3 cells; type: cell-based; conditions: Mus musculus, NIH3T3; NIH/3T3 cell; read-out: inhibition of NF-ηB production IC50
Procedure: as §5, §6

TNF-α [4] = experiment: TNF-α activity assay (ELISA) in NIH/3T3 cells; type: cell-based; conditions: NIH/3T3 cell; read-out: inhibition of TNF-α production IC50
Procedure: (§7) FIG. 4. Inhibition of TNF-α production in THP-1 and NIH/3T3 cells.
(§8) TNF-α activity assays. The protein expression levels of TNF-α were measured by using an enzyme-linked immunosorbent assay (ELISA) kit according to the manufacturer's instructions (Diaclone). Absorbance was read at 450 nm on a spectrophotometric ELISA plate reader (Anthos 2020, Version 2.0.5, Biochrom Ltd., UK). The percentage of TNF-α inhibition was calculated from the ratio between the observed TNF-α amount secreted by treated cells (nM) and the baseline secretion of TNF-α (nM). Dexamethasone (Sigma-Aldrich; 50-02-2), was used as positive control (0.01 μM). Results were normalized to the solvent control DMSO (0.1%).

THP-1 cells [5] = experiment: Cytotoxic activity assay in THP-1 cells; type: cell-based; conditions: 48 h, at the tested concentrations
Procedure: FIG. 1. Cytotoxic activities of the compound in THP-1 cells. The cells were treated with the test substance at the indicated concentrations for 48 h.
Cytotoxic activity assays. THP-1 cell was seeded in 96-well plates at a density of 5×10^4 cells/well and NIH/3T3 cells were seeded in 96-well plates at a density of 5×10^3 cells/well both incubated overnight at 37° C. in a humidified atmosphere of 5% CO2. Subsequently, cells were treated with test compounds at the indicated concentrations and DMSO as control for […]. The test compounds were dissolved in DMSO (stock solution) and diluted with medium to a final DMSO concentration of 0.2%. MTT solution (50 μL, 7 mg/mL in PBS) was added to each well and plates were incubated for an additional 2 h. Next, the medium was removed and 100 μL of DMSO was added to each well to dissolve the formazan crystals that formed. The absorbance was measured at 590 nm using a spectrophotometric ELISA plate reader (SpectraMax® i3, Molecular Devices, CA, USA). Samples were considered nontoxic for the THP-1 and NIH/3T3 cell line when cell viability was ≥90%.
To analyse the cytotoxic activities of the test compound, THP-1 cells were incubated with DOXA-1 and DOXA-2 for 48 h and cytotoxicity was measured by fluorescence microscopy using an Incuyte microscope.

STAT3 = STAT3 activity assay (HeLa-STAT3-Luc luciferase reporter, IFNγ-induced); type: cell-based; conditions: HeLa-STAT3-Luc cells, IFNγ 25 U/mL, 6 h; read-out: inhibition of IFNγ-induced STAT3 activation IC50
Procedure: FIG. 6. DOXA-1 and DOXA-2 inhibits IFNγ-induced STAT3 activation. HeLa-STAT3-Luc cells (15×10^3 cells/mL) were preincubated with increasing concentrations of the compound and treated with IFNγ (25 U/mL) for 6 h. Luciferase activity was measured in the cell lysates with the luciferase assay kit (Promega, USA) and using a GloMax 96 microplate luminometer
STAT3 activity assay. The HeLa-STAT3-luc cells have been stably transfected with the plasmid 4×M67 pTATA TK-Luc. Cells (15×10^3 cells/mL) are seeded 96-well plate the day before the assay. Then the cells are treated with the compound for 15 min and then stimulated with IFN-γ 25 IU/mL. After 6 h, the cells are washed twice with PBS and lysed in 50 μL lysis buffer containing 25 mM Tris-phosphate (pH 7.8), 8 mM MgCl2, 1 mM DTT, 1% Triton X-100, and 7% glycerol during 15 min at RT in a horizontal shaker. Luciferase activity was measured using GloMax 96 microplate luminometer (Promega) following the instructions of the luciferase assay kit (Promega, Madison, WI, USA). The RLU is calculated and the results are expressed as percentage of inhibition of STAT3 activity induced by IFN-γ (100% activation). The experiments for each concentration of the test items will be done in triplicate wells.

TNF-α [6] = experiment: TNF-α activity assay (ELISA) in THP-1 cells; type: cell-based; conditions: THP-1 cell; read-out: inhibition of TNF-α production IC50
Procedure: as §7, §8

[7] = Total antioxidant activity assay (DPPH free radical, cell-free); type: biochemical; conditions: Trolox 200 μM as positive control
Procedure: FIG. 2. Antioxidant activity of compound. The percentage of antioxidant activity of each extract was assessed by DPPH free radical assay and compared to the standard Trolox (92.08% of antioxidant activity).
Total antioxidant activity assay. […] DPPH (1,1-Diphenyl-2-picrylhydrazine) is a purple coloured stable free radical that is reduced to the yellow-coloured diphenylpicrylhydrazine. In a volume of 1 mL of methanol the test samples are mixed with DPPH 0.125 mM. Trolox (200 μM) is included as a positive control. After 30 min of incubation at room temperature in the dark the absorbance measurements are read at 517 nm using Thermo Scientific Genesys 10 uv scanning spectrophotometer. Lower absorbance of the reaction mixtures indicated higher free radical-scavenging activity. DPPH radical-scavenging activity is calculated according to the following formula: % Antioxidant activity=[(AC−AS)/AC]×100
Where Ac (control) is the absorbance of the control reaction (DPPH) and As (sample) is the absorbance of DPPH and sample.

Row | Compound | IC50 (NIH/3T3 cells) | IC50 (HIF-1α) | IC50 (tyrosinase) | IC50 (NF-ηB [1]) | IC50 (THP-1 cells [2]) | IC50 (NF-ηB [3]) | IC50 (TNF-α [4]) | cytotoxicity against THP-1 cell (THP-1 cells [5]) | IC50 (STAT3) | IC50 (TNF-α [6]) | percentage of antioxidant activity (DPPH), standard [7]
1 | CCCCCC1=NN(C(=O)CCOC(=O)CCC(=O)O)OC(CCCCC)C1 (stereo not drawn) [DOXA-1, Doxadiazine-1] | 3330 nM | 12.4 nM | 18 nM | 63.6 nM | 8.15 nM | 67.7 nM | 17.4 nM | no cytotoxicity | 3.09 nM | 32.5 nM | –
2 | CCCCCC1=NN(C(=O)CCOC(C)=O)OC(CCCCC)C1 (stereo not drawn) [DOXA-2, Doxadiazine-2] | 2.23 nM | 5.07 nM | 8.64 nM | 5.18 nM | 3.44 nM | 2.41 nM | 1.58 nM | no cytotoxicity | 0.14 nM | 3.47 nM | –
3 | Cc1c(C)c2c(c(C)c1O)CCC(C)(C(=O)O)O2 (stereo not drawn) [Trolox, reference compound] | – | – | – | – | – | – | – | – | – | – | 92.08%
